Laboratory results as given in PMC4615133, “Click chemistry armed enzyme-linked immunosorbent assay to measure palmitoylation by hedgehog acyltransferase” (Analytical Biochemistry, 2015).

Target: T1, hedgehog acyltransferase (Hhat) (Homo sapiens, UniProt Q5VTY9)
T1 construct: Hhat-3C-FLAG-His8 (cDNA base pairs 4 to 1479), DDM-solubilized P100 membrane fraction from HEK293a cells
Experiment: stopped click-ELISA kinetics, apparent Km at […] Shh([…])
Assay type: cell-based

T1 sequence (Q5VTY9 2-493): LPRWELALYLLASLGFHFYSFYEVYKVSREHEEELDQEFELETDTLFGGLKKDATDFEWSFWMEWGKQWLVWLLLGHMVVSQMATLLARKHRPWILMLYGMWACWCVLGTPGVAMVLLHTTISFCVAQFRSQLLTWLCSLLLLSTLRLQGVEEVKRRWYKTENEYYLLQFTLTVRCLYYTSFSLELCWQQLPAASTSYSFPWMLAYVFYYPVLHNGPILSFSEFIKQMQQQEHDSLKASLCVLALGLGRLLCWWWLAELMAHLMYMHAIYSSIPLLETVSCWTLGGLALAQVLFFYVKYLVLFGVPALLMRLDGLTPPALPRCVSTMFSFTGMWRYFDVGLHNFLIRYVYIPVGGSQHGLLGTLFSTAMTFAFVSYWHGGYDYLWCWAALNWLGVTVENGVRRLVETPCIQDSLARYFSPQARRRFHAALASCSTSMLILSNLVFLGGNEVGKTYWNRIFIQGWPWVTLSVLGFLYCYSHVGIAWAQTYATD

- Km: 150 ± 50 nM
Compound: C#CCCCCCCCCCCCCC(=O)SCCNC(=O)CCNC(=O)[C@H](O)C(C)(C)COP(=O)(O)OP(=O)(O)OC[C@H]1O[C@@H](n2cnc3c(N)ncnc32)[C@H](O)[C@@H]1OP(=O)(O)O [YnC15-CoA]
